In patent publication US20060039955A1, “Animal feed compositions with enhanced histidine content” (Cargill, Incorporated, priority 2004, published 2006):

Assays:
[1] = Poultry digestibility trial (intestinal digestibility of His and Lys sources); format: in vivo
Protocol: This trial tested four different sources of AA for their intestinal digestibility. Crystalline His and Lys were coated with partially hydrogenated vegetable oil to test their digestibility as compared to His(HCl) and Lys(HCl), respectively. His(HCl) contains 74.3 wt. % His, whereas, the coated product contains 40 wt. % His. Lys(HCl) contains 78.8 wt. % Lys, whereas, the coated product contains 45 wt. % Lys. For this trial the test articles were added at low levels. The control diet was used as a blank to measure endogenous losses and to calculate the digestibility of His and Lys. The control diet was spiked with His or Lys by using either His(HCl) or Lys(HCl), respectively, (0.50% inclusion rate). This provided His and Lys at 0.372% and 0.394%, respectively. The coated His and Lys products were added to provide the same level of His or Lys as provided by the His(HCl) or Lys(HCl), respectively. The digestibility of His and Lys in the casein was determined and this effect was assessed in calculating the digestibility of the coated His and coated Lys. All test diets contained the same amount of casein (the only other source of His and Lys) as the control diet.

[2] = parameters: species or system cows; details: cow, in vivo
Protocol: Free Amino Acid degradation in vivo was determined using a technique that used cobalt (CoII) as a ruminal flow marker to follow the flow of Maillard-protected histidine (which had been reacted with lactose) out of the rumen. Maillard-protected histidine loss was evaluated relative to CoII outflow in fistulated cows. Free histidine or histidine modified by the Maillard Reaction Protocol were introduced into fistulated cows together with Cobalt II. After introducing the histidine or modified histidine into the cows, samples of rumen fluid periodically were withdrawn and the amount of histidine was determined using an O-phthaldialdehyde assay as described by Roth (1971), Anal. Chem. 43:880. The amount of CoII was determined using inductively coupled plasma emission spectroscopy. The amount of histidine related to CoII was plotted versus time to calculate a degradation coefficient (Kd) for free and protected histidine.

## Cl.N[C@@H](Cc1c[nH]cn1)C(=O)O [Histidine HCl]
[1]; apparent histidine digestibility, His at 0.372% of diet
  App. His Dig.: 99.3
[1]; true histidine digestibility, His at 0.372% of diet
  True His. Dig.: 100.2

## Cl.NCCCC[C@H](N)C(=O)O [Lysine HCL]
[1]; apparent lysine digestibility, Lys at 0.394% of diet
  App. Lys. Dig.: 97.3
[1]; true lysine digestibility, Lys at 0.394% of diet
  True Lys Dig.: 99.6

## N[C@@H](Cc1c[nH]cn1)C(=O)O [free histidine, histidine]
[2]
  degradation coefficient (Kd): 0.000208 to 0.000264 s⁻¹
